According to patent US12612387B2, “RAS inhibitors and methods of using the same” (Jazz Pharmaceuticals Ireland Limited, priority 2020, dated 2026):

Assays:
K-RAS G12D = biological target: T1, K-RAS G12D (Homo sapiens, UniProt P01116, G12D); test: Compound depletion assay, K-RAS G12D; type: binding; conditions: G12D protein 20 μM, compound 8 μM, 25° C.
T1 construct: His tag; purchased Stratech
Experimental: (§1) Compound Depletion Assay Method
(§2) Lyophilized human K-RAS (12 Cys) protein (His tag) and human K-RAS (12 Asp) protein (His tag) were purchased from Stratech and reconstituted at 30 μM in water. The protein concentration of K-RAS G12C and K-RAS G12D was adjusted to 20 μM in K-RAS Assay Buffer (20 mM HEPES pH 7.5, 150 mM NaCl, 1 mM MgCl2). A 49 μl aliquot of protein solution was transferred to 1.5 ml eppendorfs and incubated at room temperature for 10 minutes. A 1 μl aliquot of compound solution in DMSO was added to the protein solutions in the 1.5 ml eppendorfs to initiate the reaction, with a final assay compound concentration of 8 μM. Reactions were agitated at 25° C., 700 rpm. At each time point (0, 30, 180, 360, 1440 minutes), 10 μl of the reaction mixture was removed, added to 30 μl quench solution (0.3% formic acid, 75 nM propranolol in acetonitrile) to stop the reaction and stored at 4° C. Once all reactions were quenched, the samples were centrifuged at 16000 g for 10 minutes to pellet the protein and salts. A 10 μl aliquot of supernatant containing compound was diluted in 50:50 acetonitrile:H2O in a 96 well plate. The plates were heat sealed and the samples analysed by LC-MS/MS to determine the concentration of compound remaining in the samples. To determine the reaction progress, the compound signal was normalized to the internal standard signal (propranolol). The decrease in free compound concentration is shown as a percentage over time, with the […] at time zero fixed at one hundred percent. Compound is assumed to be completely depleted when no longer detectable with a double blank sample as reference.

K-RAS G12C = biological target: T2, K-RAS G12C (Homo sapiens, UniProt P01116, G12C); test: Compound depletion assay, K-RAS G12C; type: binding; conditions: G12C protein 20 μM, compound 8 μM, 25° C.
T2 construct: His tag; purchased Stratech
Experimental: as §1, §2

T1 sequence (P01116 1-188 isoform P01116-2 G12D): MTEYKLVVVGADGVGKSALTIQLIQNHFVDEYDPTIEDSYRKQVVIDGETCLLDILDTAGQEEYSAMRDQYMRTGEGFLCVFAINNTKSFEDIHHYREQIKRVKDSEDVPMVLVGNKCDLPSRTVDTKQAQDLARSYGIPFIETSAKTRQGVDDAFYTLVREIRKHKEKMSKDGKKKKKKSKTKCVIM
T2 sequence (P01116 1-188 isoform P01116-2 G12C): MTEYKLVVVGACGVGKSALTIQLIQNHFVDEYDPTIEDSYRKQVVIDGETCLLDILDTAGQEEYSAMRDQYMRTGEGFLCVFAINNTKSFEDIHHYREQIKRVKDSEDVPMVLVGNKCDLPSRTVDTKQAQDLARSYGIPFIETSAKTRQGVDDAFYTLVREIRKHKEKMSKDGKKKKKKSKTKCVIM

Compound	3 hr Category (compound remaining at timepoint) (K-RAS G12D)	24 hr Category (compound remaining at timepoint) (K-RAS G12D)	3 hr Category (compound remaining at timepoint) (K-RAS G12C)	24 hr Category (compound remaining at timepoint) (K-RAS G12C)	30 min Category (compound remaining at timepoint) (K-RAS G12D)	6 hr Category (compound remaining at timepoint) (K-RAS G12D)	30 min Category (compound remaining at timepoint) (K-RAS G12C)	6 hr Category (compound remaining at timepoint) (K-RAS G12C)
C=CC(=O)N1CCN(c2cc(C(=O)Nc3ccccc3)nc(OC[C@@H]3CCCN3C)n2)CC1 [Example 18, 2-[[(2S)-1-methylpyrrolidin-2-yl]methoxy]-N-phenyl-6-(4-prop-2-enoylpiperazin-1-yl)pyrimidine-4-carboxamide]	A (≥70% compound remaining at timepoint)	A (≥70% compound remaining at timepoint)	A (≥70% compound remaining at timepoint)	A (≥70% compound remaining at timepoint)	–	–	–	–
C=CC(=O)N1CCN(c2cc(C(=O)Nc3cc(O)cc4ccccc34)nc(-c3ccccn3)n2)C[C@@H]1CC#N [Example 31, 6-[(3S)-3-(cyanomethyl)-4-prop-2-enoyl-piperazin-1-yl]-N-(3-hydroxy-1-naphthyl)-2-(2-pyridyl)pyrimidine-4-carboxamide]	A (≥70% compound remaining at timepoint)	–	B (30%-70% compound remaining at timepoint)	–	A (≥70% compound remaining at timepoint)	A (≥70% compound remaining at timepoint)	A (≥70% compound remaining at timepoint)	B (30%-70% compound remaining at timepoint)
C=CC(=O)N1CCN(c2cc(C(=O)Nc3cc(O)cc4ccccc34)nc(-c3ccc4cnn(C)c4c3)n2)C[C@@H]1CC#N [Example 32, 6-[(3S)-3-(cyanomethyl)-4-prop-2-enoyl-piperazin-1-yl]-N-(3-hydroxy-1-naphthyl)-2-(1-methylindazol-6-yl)pyrimidine-4-carboxamide]	A (≥70% compound remaining at timepoint)	–	A (≥70% compound remaining at timepoint)	–	A (≥70% compound remaining at timepoint)	A (≥70% compound remaining at timepoint)	A (≥70% compound remaining at timepoint)	A (≥70% compound remaining at timepoint)
C=CC(=O)N1CCN(c2cc(C(=O)Nc3cc(O)cc4ccccc34)nc(NCCN(C)C)n2)C[C@@H]1CC#N [Example 29, 6-[(3S)-3-(cyanomethyl)-4-prop-2-enoyl-piperazin-1-yl]-2-[2-(dimethylamino)ethylamino]-N-(3-hydroxy-1-naphthyl)pyrimidine-4-carboxamide]	A (≥70% compound remaining at timepoint)	–	B (30%-70% compound remaining at timepoint)	–	A (≥70% compound remaining at timepoint)	A (≥70% compound remaining at timepoint)	A (≥70% compound remaining at timepoint)	C (≤30% compound remaining at timepoint)
C=CC(=O)N1CCN(c2cc(C(=O)Nc3cc(O)cc4ccccc34)nc(NC[C@@H]3CCCN3Cc3ccccc3)n2)C[C@@H]1CC#N [Example 44, 2-[[(2S)-1-benzylpyrrolidin-2-yl]methylamino]-6-[(3S)-3-(cyanomethyl)-4-prop-2-enoyl-piperazin-1-yl]-N-(3-hydroxy-1-naphthyl)pyrimidine-4-carboxamide]	A (≥70% compound remaining at timepoint)	–	B (30%-70% compound remaining at timepoint)	–	A (≥70% compound remaining at timepoint)	A (≥70% compound remaining at timepoint)	A (≥70% compound remaining at timepoint)	B (30%-70% compound remaining at timepoint)
C=CC(=O)N1CCN(c2cc(C(=O)N(C)c3cccc4ccccc34)nc(OC[C@@H]3CCCN3C)n2)CC1 [Example 13, N-methyl-2-[[(2S)-1-methylpyrrolidin-2-yl]methoxy]-N-(1-naphthyl)-6-(4-prop-2-enoylpiperazin-1-yl)pyrimidine-4-carboxamide]	A (≥70% compound remaining at timepoint)	A (≥70% compound remaining at timepoint)	A (≥70% compound remaining at timepoint)	A (≥70% compound remaining at timepoint)	–	–	–	–
C=CC(=O)N1CCN(c2cc(C(=O)Nc3cccc4ccccc34)nc(-c3ccnn3C)n2)CC1 [Example 11, 2-(2-methylpyrazol-3-yl)-N-(1-naphthyl)-6-(4-prop-2-enoylpiperazin-1-yl)pyrimidine-4-carboxamide]	A (≥70% compound remaining at timepoint)	A (≥70% compound remaining at timepoint)	A (≥70% compound remaining at timepoint)	A (≥70% compound remaining at timepoint)	–	–	A (≥70% compound remaining at timepoint)	–
C=CC(=O)N1CCN(c2cc(C(=O)Nc3cc(O)cc4ccccc34)nc(OC[C@@H]3CCCN3C)n2)C[C@@H]1CC#N [Example 08, 6-[(3S)-3-(cyanomethyl)-4-prop-2-enoyl-piperazin-1-yl]-N-(3-hydroxy-1-naphthyl)-2-[[(2S)-1-methylpyrrolidin-2-yl]methoxy]pyrimidine-4-carboxamide]	A (≥70% compound remaining at timepoint)	A (≥70% compound remaining at timepoint)	C (≤30% compound remaining at timepoint)	C (≤30% compound remaining at timepoint)	A (≥70% compound remaining at timepoint)	A (≥70% compound remaining at timepoint)	B (30%-70% compound remaining at timepoint)	C (≤30% compound remaining at timepoint)
C=CC(=O)N1CCN(c2cc(C(=O)Nc3cc(O)cc4ccccc34)nc(OC[C@@H]3CCCN3CC)n2)C[C@@H]1CC#N [Example 51, 6-[(3S)-3-(cyanomethyl)-4-prop-2-enoyl-piperazin-1-yl]-2-[[(2S)-1-ethylpyrrolidin-2-yl]methoxy]-N-(3-hydroxy-1-naphthyl)pyrimidine-4-carboxamide]	A (≥70% compound remaining at timepoint)	–	C (≤30% compound remaining at timepoint)	–	A (≥70% compound remaining at timepoint)	A (≥70% compound remaining at timepoint)	C (≤30% compound remaining at timepoint)	C (≤30% compound remaining at timepoint)
C=CC(=O)N1CCN(c2cc(C(=O)Nc3cc(O)cc4ccccc34)nc(OC[C@@H]3CCCN3CCO)n2)C[C@@H]1CC#N [Example 53, 6-[(3S)-3-(cyanomethyl)-4-prop-2-enoyl-piperazin-1-yl]-2-[[(2S)-1-(2-hydroxyethyl)pyrrolidin-2-yl]methoxy]-N-(3-hydroxy-1-naphthyl)pyrimidine-4-carboxamide]	A (≥70% compound remaining at timepoint)	–	C (≤30% compound remaining at timepoint)	–	A (≥70% compound remaining at timepoint)	A (≥70% compound remaining at timepoint)	C (≤30% compound remaining at timepoint)	C (≤30% compound remaining at timepoint)
